From publication PMC9295568, “Dual Inhibition of Vacuolar-ATPase and TMPRSS2 Is Required for Complete Blockade of SARS-CoV-2 Entry into Cells” (Antimicrobial Agents and Chemotherapy, 2022)
Structures can show the parent of a compound that is named as a salt.

Each molecule was assayed on endosomal acidification in Vero cells (assay: cells). Conditions: Chlorocebus sabaeus, Vero, read-out: Percent Inhibition (%) of endosomal acidification.
Type: cell-based
Experimental: Inhibition of endosomal acidification was measured using LysoTracker Red DND-99 (ThermoFisher). […] Data were plotted using Prism 9 (GraphPad).
`CNCC[C@H](Oc1cccc2ccccc12)c1cccs1` [DULOXETINE HYDROCHLORIDE] was tested, and the inhibition at 40 µM was 59%. In the case of `CNCCCC12CCC(c3ccccc31)c1ccccc12` [MAPROTILINE HYDROCHLORIDE], the inhibition at 40 µM is reported as 60%.

Same assay, conditions: Chlorocebus sabaeus; Vero cells, 40 μM, singlet (n=1); read-out: Percent Inhibition (%) of endosomal acidification
In the case of `C=CC(C)(O)CCC=C(C)CCC=C(C)C` (mixture of isomers) [NEROLIDOL], the inhibition at 40 µM is reported as 66%. In the case of `CCCCCCCCCc1ccc(O)cc1` [4-NONYLPHENOL], the inhibition at 40 µM is reported as 79%. `CC(C)c1ccc2c(c1)CC[C@H]1[C@](C)(CN)CCC[C@]21C` [18-AMINOABIETA-8,11,13-TRIENE SULFATE] was tested, and the inhibition at 40 µM was 67%. In the case of `CC(=O)c1ccc2c(c1)N(CCCN(C)C)c1ccccc1S2` [ACEPROMAZINE MALEATE], the inhibition at 40 µM is reported as 67%. In the case of `CCCCC(CC)CNC(=N)NC(=N)NCCCCCCNC(=N)NC(=N)NCC(CC)CCCC` (stereo not drawn) [ALEXIDINE HYDROCHLORIDE], the inhibition at 40 µM is reported as 95%. In the case of `Nc1c2ccccc2nc2ccccc12` [AMINACRINE], the inhibition at 40 µM is reported as 69%. For `CN(C)CCC=C1c2ccccc2CCc2ccccc21` [AMITRIPTYLINE HYDROCHLORIDE], the inhibition at 40 µM was 53%. Molecule `CCOC(=O)C1=C(COCCN)NC(C)=C(C(=O)OC)C1c1ccccc1Cl` (stereo not drawn) [AMLODIPINE BESYLATE] has an inhibition at 40 µM of 76%. With `C[C@@H]1[C@H](O)[C@@H](C)/C=C/C=C/C=C/C=C/C=C/C=C/C=C/[C@H](O[C@@H]2O[C@H](C)[C@@H](O)[C@H](N)[C@@H]2O)C[C@@H]2O[C@](O)(C[C@@H](O)C[C@@H](O)[C@H](O)CC[C@@H](O)C[C@@H](O)CC(=O)O[C@H]1C)C[C@H](O)[C@H]2C(=O)O` [AMPHOTERICIN B] the inhibition at 40 µM was 60%. Molecule `COc1cc(NS(C)(=O)=O)ccc1Nc1c2ccccc2nc2ccccc12` [AMSACRINE] has an inhibition at 40 µM of 87%. In the case of `CC(=O)O[C@@H]1CC[C@@]2(C)[C@@H](CC[C@@H]3[C@@H]2CC[C@]2(C)C(=O)CC[C@@H]32)C1` [AN[…]], the inhibition at 40 µM is reported as 50%. `C[C@@H](O[C@H]1OCCN(Cc2n[nH]c(=O)[nH]2)[C@H]1c1ccc(F)cc1)c1cc(C(F)(F)F)cc(C(F)(F)F)c1` [APREPITANT] showed an inhibition at 40 µM of 62%. With `CCCCC/C=C\C/C=C\C/C=C\C/C=C\CCCC(=O)O` [ARACHIDONIC ACID] the inhibition at 40 µM was 64%. `COc1ccc(CCN2CCC(Nc3nc4ccccc4n3Cc3ccc(F)cc3)CC2)cc1` [ASTEMIZOLE] showed an inhibition at 40 µM of 50%. In the case of `CN1CCCC(n2nc(Cc3ccc(Cl)cc3)c3ccccc3c2=O)CC1` (stereo not drawn) [AZELASTINE HYDROCHLORIDE], the inhibition at 40 µM is reported as 59%. With `Cc1c(-c2ccc(O)cc2)n(Cc2ccc(OCCN3CCCCCC3)cc2)c2ccc(O)cc12` [BAZEDOXIFENE ACETATE] the inhibition at 40 µM was 89%. Molecule `CCOC(=O)[C@H](CCc1ccccc1)N[C@H]1CCc2ccccc2N(CC(=O)O)C1=O` [BENAZEPRIL HYDROCHLORIDE] has an inhibition at 40 µM of 64%. With `CN1[C@@H]2CC[C@H]1C[C@@H](OC(c1ccccc1)c1ccccc1)C2` [BENZTROPINE MESYLATE] the inhibition at 40 µM was 50%. Work on `CN(C)CCCOc1nn(Cc2ccccc2)c2ccccc12` [BENZYDAMINE HYDROCHLORIDE] yielded an inhibition at 40 µM of 58%. Work on `CC(C)COCC(CN(Cc1ccccc1)c1ccccc1)N1CCCC1` (stereo not drawn) [BEPRIDIL HYDROCHLORIDE] yielded an inhibition at 40 µM of 71%. With `C=C(c1ccc(C(=O)O)cc1)c1cc2c(cc1C)C(C)(C)CCC2(C)C` [BEXAROTENE] the inhibition at 40 µM was 64%. For `c1ccc(-c2ccc(C(c3ccccc3)n3ccnc3)cc2)cc1` (stereo not drawn) [BIFONAZOLE], the inhibition at 40 µM was 50%. For `O=C(CCCN1CCC(O)(c2ccc(Br)cc2)CC1)c1ccc(F)cc1` [BROMPERIDOL], the inhibition at 40 µM was 50%. Work on `C[C@@]12C(=O)OC(=O)[C@]1(C)[C@H]1CC[C@@H]2O1` [CANTHARIDIN] yielded an inhibition at 40 µM of 65%. In the case of `CC(C)NCC(O)COc1cccc2[nH]c3ccccc3c12` (stereo not drawn) [CARAZOLOL], the inhibition at 40 µM is reported as 54%. `COc1ccccc1OCCNCC(O)COc1cccc2[nH]c3ccccc3c12` (stereo not drawn) [CARVEDILOL] showed an inhibition at 40 µM of 55%. `CC1=C(O)C(=O)C=C2C1=CC=C1[C@@]2(C)CC[C@@]2(C)[C@@H]3C[C@](C)(C(=O)O)CC[C@]3(C)CC[C@]12C` [CELASTROL] showed an inhibition at 40 µM of 92%. `CCCCCCCCCCCCCCCC[N+](C)(C)C` [CETRIMONIUM BROMIDE] was tested, and the inhibition at 40 µM was 79%. For `COc1cc(-c2ccc(/N=N/c3ccc4c(S(=O)(=O)O)cc(S(=O)(=O)O)c(N)c4c3O)c(OC)c2)ccc1/N=N/c1ccc2c(S(=O)(=O)O)cc(S(=O)(=O)O)c(N)c2c1O` [CHICAGO SKY BLUE], the inhibition at 40 µM was 54%. For `CN(C)CCCN1c2ccccc2Sc2ccc(Cl)cc21` [CHLORPROMAZINE], the inhibition at 40 µM was 65%. Molecule `CN(C)CC/C=C1/c2ccccc2Sc2ccc(Cl)cc21` [CHLORPROTHIXENE HYDROCHLORIDE] has an inhibition at 40 µM of 57%. Work on `C[C@@H](NCCCc1cccc(C(F)(F)F)c1)c1cccc2ccccc12` [CINACALCET HYDROCHLORIDE] yielded an inhibition at 40 µM of 91%. `CC(C)/N=c1\cc2n(-c3ccc(Cl)cc3)c3ccccc3nc-2cc1Nc1ccc(Cl)cc1` [CLOFAZIMINE] showed an inhibition at 40 µM of 80%. `CCN(CC)CCOc1ccc(C(=C(Cl)c2ccccc2)c2ccccc2)cc1` [CLOMIPHENE CITRATE] gave an inhibition at 40 µM of 69%. For `CN(C)CCCN1c2ccccc2CCc2ccc(Cl)cc21` [CLOMIPRAMINE HYDROCHLORIDE], the inhibition at 40 µM was 83%. In the case of `Cc1cc(C(C#N)c2ccc(Cl)cc2)c(Cl)cc1NC(=O)c1cc(I)cc(I)c1O` (stereo not drawn) [CLOSANTEL], the inhibition at 40 µM is reported as 56%. With `CC1CC(OC(=O)C(O)c2ccccc2)CC(C)(C)C1` (stereo not drawn) [CYCLANDELATE] the inhibition at 40 µM was 52%. In the case of `CN1CCC(=C2c3ccccc3C=Cc3ccccc32)CC1` [CYPROHEPTADINE HYDROCHLORIDE], the inhibition at 40 µM is reported as 67%. In the case of `CCCCCCCCCCCCCCCC[N+](C)(C)Cc1ccccc1` [C[…]], the inhibition at 40 µM is reported as 90%. `C=CC(C1=CC(=O)C=CC1=O)c1ccccc1` (stereo not drawn) [DALBERGIONE] was tested, and the inhibition at 40 µM was 85%. Molecule `CN(C)[C@@H](CCOc1cccc2ccccc12)c1ccccc1` [DAPOXETINE HYDROCHLORIDE] has an inhibition at 40 µM of 91%. With `CNCCCN1c2ccccc2CCc2ccccc21` [DESIPRAMINE HYDROCHLORIDE] the inhibition at 40 µM was 50%. `Oc1ccc(Cl)cc1Cc1cc(Cl)ccc1O` [DICHLOROPHEN] was tested, and the inhibition at 40 µM was 86%. Molecule `C[C@@H]1CC[C@@]2(OC1)O[C@H]1[C@@H](O)[C@H]3[C@@H]4CC[C@H]5C[C@@H](O[C@@H]6O[C@H](CO)[C@H](O[C@@H]7O[C@H](CO)[C@@H](O)[C@H](O[C@@H]8OC[C@@H](O)[C@H](O)[C@H]8O)[C@H]7O[C@@H]7O[C@H](CO)[C@H](O)[C@H](O[C@@H]8O[C@H](CO)[C@@H](O)[C@H](O)[C@H]8O)[C@H]7O)[C@H](O)[C@H]6O)[C@H](O)C[C@]5(C)[C@H]4CC[C@]3(C)[C@H]1[C@@H]2C` [DIGITONIN] has an inhibition at 40 µM of 79%. `Cc1c(O)c(O)cc2c1CC=C1[C@@]2(C)CC[C@@]2(C)[C@@H]3C[C@](C)(C(=O)O)CC[C@]3(C)CC[C@]12C` [DIHYDROCELASTROL] was tested, and the inhibition at 40 µM was 96%. For `O=C(Nc1ccccc1)OCC(CN1CCCCC1)OC(=O)Nc1ccccc1` (stereo not drawn) [DIPERODON HYDROCHLORIDE], the inhibition at 40 µM was 54%. Work on `CCN(CC)CCOC(=O)C(c1ccccc1)C1CCCCC1` (stereo not drawn) [DROFENINE HYDROCHLORIDE] yielded an inhibition at 40 µM of 58%. `CCCCc1oc2ccc(NS(C)(=O)=O)cc2c1C(=O)c1ccc(OCCCN(CCCC)CCCC)cc1` [DRONEDARONE HYDROCHLORIDE] showed an inhibition at 40 µM of 85%. For `Clc1ccc(COC(Cn2ccnc2)c2ccc(Cl)cc2Cl)cc1` (stereo not drawn) [ECONAZOLE NITRATE], the inhibition at 40 µM was 76%. For `CCN(CC)C(C)CN1c2ccccc2Sc2ccccc21` (stereo not drawn) [ETHOPROPAZINE HYDROCHLORIDE], the inhibition at 40 µM was 70%. `CC(C)=CCC/C(C)=C/CC/C(C)=C/CO` [FARNESOL] showed an inhibition at 40 µM of 76%. With `CC(NCCC(c1ccccc1)c1ccccc1)c1ccccc1` (stereo not drawn) [FENDILINE HYDROCHLORIDE] the inhibition at 40 µM was 73%. In the case of `CNCCC(Oc1ccc(C(F)(F)F)cc1)c1ccccc1` (stereo not drawn) [FLUOXETINE], the inhibition at 40 µM is reported as 67%. `OCCN1CCN(CCCN2c3ccccc3Sc3ccc(C(F)(F)F)cc32)CC1` [FLUPHENAZINE HYDROCHLORIDE] was tested, and the inhibition at 40 µM was 78%. For `CC(C)=CCC[C@]1(C)C=Cc2c(O)c3c(c(CC=C(C)C)c2O1)O[C@]12C(=C[C@@H]4C[C@H]1C(C)(C)O[C@@]2(C/C=C(/C)C(=O)O)C4=O)C3=O` [GAMBOGIC ACID], the inhibition at 40 µM was 90%. `CN(C)c1ccc(C(=C2C=CC(=[N+](C)C)C=C2)c2ccc(N(C)C)cc2)cc1` [GENTIAN VIOLET] was tested, and the inhibition at 40 µM was 95%. In the case of `Cc1cc2c(C(C)C)c(O)c(O)c(C=O)c2c(O)c1-c1c(C)cc2c(C(C)C)c(O)c(O)c(C=O)c2c1O` [GOSSYPOL], the inhibition at 40 µM is reported as 80%. `Cc1ccc(C(C)C)cc2c(C)ccc1-2` [GUAIAZULENE] gave an inhibition at 40 µM of 64%. For `CCCCC(CC)CN1CN(CC(CC)CCCC)CC(C)(N)C1` (stereo not drawn) [HEXETIDINE], the inhibition at 40 µM was 84%. In the case of `CCN(CC)CCNc1ccc(CO)c2sc3ccccc3c(=O)c12` [HYCANTHONE], the inhibition at 40 µM is reported as 69%. Molecule `COC1=C(OC)C(=O)C(CCCCCCCCCCO)=C(C)C1=O` [IDEBENONE] has an inhibition at 40 µM of 63%. Work on `CN(C)CCCN1c2ccccc2CCc2ccccc21` [IMIPRAMINE HYDROCHLORIDE] yielded an inhibition at 40 µM of 54%. `CC1Cc2ccccc2N1NC(=O)c1ccc(Cl)c(S(N)(=O)=O)c1` (stereo not drawn) [INDAPAMIDE] was tested, and the inhibition at 40 µM was 101%. `Clc1ccc(C(Cn2ccnc2)OCc2c(Cl)cccc2Cl)c(Cl)c1` (stereo not drawn) [I[…]] gave an inhibition at 40 µM of 79%. `C#C[C@]1(O)CC[C@H]2[C@@H]3CCC4=CCCC[C@@H]4[C@H]3CC[C@@]21C` [LYNESTRENOL] gave an inhibition at 40 µM of 86%.

Same assay, conditions: Vero cells, 40 μM, singlet (n=1)
In the case of `CC(=O)c1ccc2c(c1)N(CCCN1CCN(CCO)CC1)c1ccccc1S2.O=C(O)/C=C\C(=O)O.O=C(O)/C=C\C(=O)O` [ACETOPHENAZINE MALEATE], the “Percent Inhibition (%) of endosomal acidification” value (shortened to “Percent Inhibition (%)”) is reported as 62%. For `C[n+]1c2cc(N)ccc2cc2ccc(N)cc21.[Cl-]` [ACRIFLAVINIUM HYDROCHLORIDE], the “Percent Inhibition (%)” value was 51%. In the case of `CCCCCCc1ccc(O)cc1O.Nc1c2ccccc2nc2ccccc12` [ACRISORCIN], the “Percent Inhibition (%)” value is reported as 50%. In the case of `CCCCCCCCCCCCCCCCC(C(=O)O)C(O)(CC(=O)O)C(=O)O` (stereo not drawn) [AGARIC ACID], the “Percent Inhibition (%)” value is reported as 89%. For `CC1(C)C=Cc2c(c3c(c4c(=O)c(-c5ccc(O)c(O)c5)coc24)OC(C)(C)CC3)O1` [ISOPOMIFERIN], the “Percent Inhibition (%)” value was 85%.
